Test results taken from ChEMBL document CHEMBL2150910, “Initial Optimization of a New Series of γ-Secretase Modulators Derived from a Triterpene Glycoside” (ACS Med Chem Lett, 2012).

Key:
[1] = Inhibition of gamma-secretase-mediated amyloid beta-42 production in diluted 2B7 conditioned media after 5 hrs
[2] = Inhibition of gamma-secretase-mediated amyloid beta-40 production in diluted 2B7 conditioned media after 5 hrs
[3] = Inhibition of gamma-secretase-mediated amyloid beta-38 production in diluted 2B7 conditioned media after 5 hrs
[4] = Inhibition of gamma-secretase-mediated amyloid beta-37 production in diluted 2B7 conditioned media after 5 hrs
[5] = Inhibition of gamma-secretase-mediated amyloid beta-40 production in diluted 2B7 conditioned media at 0.8 uM after 5 hrs
[6] = Drug level in CD1 mouse brain at 100 mg/kg, po after 2 hrs; assay type: ADME, organism-based; design: dose 100 mg/kg, route oral; conditions: read-out: Drug uptake
[7] = Drug level in CD1 mouse brain at 100 mg/kg, po after 4 hrs; assay type: ADME, organism-based; design: dose 100 mg/kg, route oral; conditions: read-out: Drug uptake
[8] = Drug level in CD1 mouse brain at 100 mg/kg, po after 6 hrs; assay type: ADME, organism-based; design: dose 100 mg/kg, route oral; conditions: read-out: Drug uptake
[9] = Half life in CD1 mouse at 30 mg/kg, po; assay type: ADME, organism-based; design: dose 30 mg/kg, route oral; conditions: in vivo
[10] = Inhibition of gamma-secretase-mediated amyloid beta-40 production in diluted 2B7 conditioned media at 20 uM after 5 hrs
[11] = Inhibition of gamma-secretase assessed as ratio of amyloid beta-40 to amyloid beta-42 production in diluted 2B7 conditioned media after 5 hrs
[12] = Inhibition of gamma-secretase-mediated total amyloid beta production in diluted 2B7 conditioned media at 20 uM after 5 hrs
[13] = biological target: Gamma-secretase; assay: Inhibition of gamma-secretase-mediated notch processing in human SUP-T1 cells after 1 hr by luminescent assay; assay type: cell-based
[14] = Half life in CD1 mouse at 1 mg/kg, iv; assay type: ADME, organism-based; design: dose 1 mg/kg, route intravenous; conditions: in vivo
[15] = Volume of distribution in CD1 mouse at 1 mg/kg, iv; assay type: ADME, organism-based; design: dose 1 mg/kg, route intravenous; conditions: in vivo
[16] = Clearance in CD1 mouse at 1 mg/kg, iv; assay type: ADME, organism-based; design: dose 1 mg/kg, route intravenous; conditions: in vivo
[17] = Oral bioavailability in CD1 mouse at 30 mg/kg; assay type: ADME, organism-based; conditions: in vivo
[18] = Ratio of drug level in brain to plasma in CD1 mouse at 30 mg/kg, po; assay type: ADME, organism-based; design: dose 30 mg/kg, route oral; conditions: read-out: BPR
[19] = AUC in CD1 mouse at 30 mg/kg, po; assay type: ADME, organism-based; design: dose 30 mg/kg, route oral; conditions: plasma
[20] = Metabolic stability in CD1 mouse liver microsomes assessed as compound remaining at 1 uM after 60 mins in absence of NADPH; assay type: ADME, Microsome; conditions: read-out: Stability
[21] = Metabolic stability in CD1 mouse liver microsomes assessed as compound remaining at 1 uM after 60 mins in presence of NADPH; assay type: ADME, Microsome; conditions: read-out: Stability
[22] = biological target: Gamma-secretase (Homo sapiens) (UniProt Q96BI3+Q9NZ42+Q8WW43+P49768+Q92542+P49810); assay: Selectivity ratio of IC50 for gamma-secretase-mediated notch processing in human SUP-T1 cells to IC50 for gamma-secretase-mediated amyloid beta-42 production; assay type: cell-based
[23] = Dissociation constant, pKa of the compound; assay type: physicochemical
[24] = Plasma concentration in CD1 mouse at 100 mg/kg, po after 2 hrs; assay type: ADME, organism-based; design: dose 100 mg/kg, route oral
[25] = Plasma concentration in CD1 mouse at 100 mg/kg, po after 4 hrs; assay type: ADME, organism-based; design: dose 100 mg/kg, route oral
[26] = Plasma concentration in CD1 mouse at 100 mg/kg, po after 6 hrs; assay type: ADME, organism-based; design: dose 100 mg/kg, route oral
[27] = Inhibition of gamma-secretase-mediated total amyloid beta production in diluted 2B7 conditioned media after 5 hrs
[28] = Drug level in CD1 mouse brain at 30 mg/kg, po after 4 hrs; assay type: ADME, organism-based; design: dose 30 mg/kg, route oral; conditions: read-out: Drug uptake
[29] = Drug level in CD1 mouse brain at 30 mg/kg, po after 6 hrs; assay type: ADME, organism-based; design: dose 30 mg/kg, route oral; conditions: read-out: Drug uptake
[30] = Drug level in CD1 mouse brain at 30 mg/kg, po after 8 hrs; assay type: ADME, organism-based; design: dose 30 mg/kg, route oral; conditions: read-out: Drug uptake
[31] = Drug level in CD1 mouse brain at 30 mg/kg, po after 24 hrs; assay type: ADME, organism-based; design: dose 30 mg/kg, route oral; conditions: read-out: Drug uptake
[32] = Plasma concentration in CD1 mouse at 30 mg/kg, po after 4 hrs; assay type: ADME, organism-based; design: dose 30 mg/kg, route oral
[33] = Plasma concentration in CD1 mouse at 30 mg/kg, po after 6 hrs; assay type: ADME, organism-based; design: dose 30 mg/kg, route oral
[34] = Plasma concentration in CD1 mouse at 30 mg/kg, po after 8 hrs; assay type: ADME, organism-based; design: dose 30 mg/kg, route oral
[35] = Plasma concentration in CD1 mouse at 30 mg/kg, po after 24 hrs; assay type: ADME, organism-based; design: dose 30 mg/kg, route oral

inhibition [5]	Structure (SMILES)	IC50 [1]	IC50 [2]	IC50 [3]	half-life [9]	Ratio [11]	IC50 [13]	half-life [14]	Vd [15]	clearance [16]	bioavailability [17]	Kp [18]	AUC [19]	remaining at 1 h, 1 µM [20]	remaining at 1 h, 1 µM [21]	Ratio IC50 [22]	pKa [23]	other results
	CC(=O)O[C@@H]([C@H]1C[C@@H](C)C2=C(O1)[C@H](O)[C@@]1(C)[C@@H]3CC[C@H]4C(C)(C)[C@@H](O[C@@H]5OC[C@@H](O)[C@H](O)[C@H]5O)CC[C@@]45C[C@@]35CC[C@]21C)C(C)(C)O	100 nM	2700 nM	61 nM														IC50 [4]: 39 nM
34%	CC(=O)O[C@@H]([C@H]1C[C@@H](C)[C@H]2[C@H](O1)[C@H](O)[C@@]1(C)[C@@H]3CC[C@H]4C(C)(C)[C@@H](O[C@H]5CN(CCN6CCCC6)CCO5)CC[C@@]45C[C@@]35CC[C@]21C)C(C)(C)O	110 nM																
29%	CC(=O)O[C@@H]([C@H]1C[C@@H](C)[C@H]2[C@H](O1)[C@H](O)[C@@]1(C)[C@@H]3CC[C@H]4C(C)(C)[C@@H](O[C@H]5CN(CCN(C)C)CCO5)CC[C@@]45C[C@@]35CC[C@]21C)C(C)(C)O	90 nM																
	CC(=O)O[C@@H]([C@H]1C[C@@H](C)[C@H]2[C@H](O1)[C@H](O)[C@@]1(C)[C@@H]3CC[C@H]4C(C)(C)[C@@H](O[C@H]5CN(C6COC6)CCO5)CC[C@@]45C[C@@]35CC[C@]21C)C(C)(C)O	170 nM	14100 nM	300 nM	2.3 h	52	> 20000 nM	0.3 h	0.6 L/kg	55 mL/min/kg	11%	0.23	1010 ng·h/mL	1%	1%	> 70	4.6	concentration at 2 h [6]: 103 ng/g; concentration at 4 h [7]: 185 ng/g; concentration at 6 h [8]: 163 ng/g; inhibition [10]: 41%; inhibition [12]: 44%; concentration at 2 h [24]: 279 ng/mL; concentration at 4 h [25]: 420 ng/mL; concentration at 6 h [26]: 453 ng/mL
	CC(=O)O[C@@H]([C@H]1C[C@@H](C)[C@H]2[C@H](O1)[C@H](O)[C@@]1(C)[C@@H]3CC[C@H]4C(C)(C)[C@@H](O[C@H]5CNCCO5)CC[C@@]45C[C@@]35CC[C@]21C)C(C)(C)O	55 nM	1400 nM	80 nM	3 h	25	> 4000 nM	6.5 h	12.1 L/kg	51.7 mL/min/kg	37%	1.7	3620 ng·h/mL	20%	25%	> 70	7.7	IC50 [27]: 2400 nM; concentration at 4 h [28]: 1340 ng/g; concentration at 6 h [29]: 1630 ng/g; concentration at 8 h [30]: 2260 ng/g; concentration at 24 h [31]: 116 ng/g; concentration at 4 h [32]: 1140 ng/mL; concentration at 6 h [33]: 840 ng/mL; concentration at 8 h [34]: 857 ng/mL; concentration at 24 h [35]: 31 ng/mL
	CC(=O)O[C@@H]([C@H]1C[C@@H](C)[C@H]2[C@H](O1)[C@H](O)[C@@]1(C)[C@@H]3CC[C@H]4C(C)(C)[C@@H](O[C@@H]5OC[C@@H](O)[C@H](O)[C@H]5O)CC[C@@]45C[C@@]35CC[C@]21C)C(C)(C)O	60 nM	1000 nM	84 nM														
